According to patent EP3771714A1, “NITROGEN-CONTAINING HETEROCYCLES AS PESTICIDES” (Bayer AG, priority 2019, dated 2021):
Values joined by “and” are separate entries in the source; they are usually repeats but may differ in a detail not shown here. Equal entries are not always repeated. Where two headings read alike, the source gives them in different places. One block for each compound: values may come before it.

Tests used:
[1] = logP determination by HPLC on reversed-phase (C18) columns, OECD Guideline 117; assay type: physicochemical
Description: Die Eichung erfolgt mit unverzweigten Alkan-2-onen (mit 3 bis 16 Kohlenstoffatomen), deren logP-Werte bekannt sind (Bestimmung der logP-Werte anhand der Retentionszeiten durch lineare Interpolation zwischen zwei aufeinander folgenden Alkanonen).

Diabrotica balteata = Diabrotica balteata spray test; assay type: in vivo; settings: 500 g/ha (=160 µg/Kavität); wheat (Triticum aestivum) with beetle larvae; after 7 days; 100 % = all wheat plants grown as in untreated, uninfected control
Description: (§1) Zur Herstellung einer zweckmäßigen Wirkstoffzubereitung löst man 1 Gewichtsteil Wirkstoff mit den angegebenen Gewichtsteilen Lösungsmittel und füllt mit Wasser, welches eine Emulgatorkonzentration von 1000 ppm enthält, bis zum Erreichen der gewünschten Konzentration auf. Zur Herstellung weiterer Testkonzentrationen wird mit emulgatorhaltigem Wasser verdünnt.
Vorgequollene Weizenkörner (Triticum aestivum) werden in einer mit Agar und etwas Wasser gefüllten Multiwell-Platte für einen Tag inkubiert (5 Saatkörner pro Kavität). Die gekeimten Weizenkörner werden mit einer Wirkstoffzubereitung der gewünschten Konzentration gespritzt. Anschließend wird jede Kavität mit 10-20 Käferlarven von Diabrotica balteata infiziert.
Nach 7 Tagen wird die Wirkung in % bestimmt. Dabei bedeutet 100 %, dass alle Weizenpflanzen wie in der unbehandelten, nicht infizierten Kontrolle gewachsen sind; 0 % bedeutet, dass keine Weizenpflanze gewachsen ist.

Myzus persicae [2] = test: Myzus persicae spray test; assay type: in vivo; settings: 100 g/ha; Chinese cabbage leaf discs (Brassica pekinensis), all stages; after 5 days
Description: Bei diesem Test zeigten z. B. die folgenden Verbindungen der Herstellungsbeispiele Wirkung von 100 % bei einer Aufwandmenge von 20 ppm: 1. Myzus persicae - Sprühtest
as §1
Chinakohlblattscheiben (Brassica pekinensis), die von allen Stadien der Grünen Pfirsichblattlaus (Myzus persicae) befallen sind, werden mit einer Wirkstoffzubereitung der gewünschten Konzentration gespritzt.
(§2) Nach 5 Tagen wird die Wirkung in % bestimmt. Dabei bedeutet 100 %, dass alle Blattläuse abgetötet wurden; 0 % bedeutet, dass keine Blattläuse abgetötet wurden.

Tetranychus urticae = Tetranychus urticae spray test, OP-resistant; assay type: in vivo; settings: 500 g/ha; bean leaf discs (Phaseolus vulgaris), all stages, OP-resistent; after 6 days
Description: Bei diesem Test zeigten z. B. die folgenden Verbindungen der Herstellungsbeispiele Wirkung von 100 % bei einer Aufwandmenge von 500 g/ha: 1. Tetranychus urticae - Sprühtest, OP-resistent
as §1
Bohnenblattscheiben (Phaseolus vulgaris), die von allen Stadien der Gemeinen Spinnmilbe (Tetranychus urticae) befallen sind, werden mit einer Wirkstoffzubereitung der gewünschten Konzentration gespritzt.
Nach 6 Tagen wird die Wirkung in % bestimmt. Dabei bedeutet 100 %, dass alle Spinnmilben abgetötet wurden; 0 % bedeutet, dass keine Spinnmilben abgetötet wurden.

Nilaparvata lugens = Nilaparvata lugens test; assay type: in vivo; settings: 500 g/ha; rice plants (Oryza sativa); after 4 days
Description: Bei diesem Test zeigten z. B. die folgenden Verbindungen der Herstellungsbeispiele Wirkung von 90 % bei einer Aufwandmenge von 500 g/ha: 1. Nilaparvata lugens -Test
as §1
Reispflanzen (Oryza sativa) werden mit der Wirkstoffzubereitung der gewünschten Konzentration gespritzt und anschließend mit der Braunrückigen Reiszikade (Nilaparvata lugens) infiziert.
Nach 4 Tagen wird die Wirkung in % bestimmt. Dabei bedeutet 100 %, dass alle Reiszikaden abgetötet wurden; 0 % bedeutet, dass keine Reiszikaden abgetötet wurden.

Myzus persicae [3] = test: Myzus persicae oral test; assay type: in vivo; settings: 20 ppm; mixed population, uptake through Parafilm; after 5 days
Experimental: Bei diesem Test zeigten z. B. die folgenden Verbindungen der Herstellungsbeispiele Wirkung von 100 % bei einer Aufwandmenge von 500 g/ha (=160 µg/Kavität): 1, 2, 3, 5, 6, 7, 8, 9, 10, 11, 12. Myzus persicae - Oraltest
Zur Herstellung einer zweckmäßigen Wirkstoffzubereitung löst man 1 Gewichtsteil Wirkstoff mit den angegebenen Gewichtsteilen Lösungsmittel und füllt mit Wasser bis zum Erreichen der gewünschten Konzentration auf.
50 µl der Wirkstoffzubereitung werden in Mikrotiterplatten überführt und mit 150µl IPL41Insektenmedium (33% + 15% Zucker) auf eine Endvolumen von 200 µl aufgefüllt. Anschließend werden die Platten mit Parafilm verschlossen, durch den eine gemischte Population der Grünen Pfirsichblattlaus (Myzus persicae), die sich in einer zweiten Mikrotiterplatte befindet, hindurchstechen und die Lösung aufnehmen kann.
as §2

Nezara viridula = Nezara viridula spray test; assay type: in vivo; settings: 500 g/ha; barley plants (Hordeum vulgare) with larvae; after 4 days
Description: Bei diesem Test zeigten z. B. die folgenden Verbindungen der Herstellungsbeispiele Wirkung von 90 % bei einer Aufwandmenge von 100 g/ha: 1, 5, 6, 9. Nezara viridula -Sprühtest
as §1
Gerstenpflanzen (Hordeum vulgare), die mit Larven der Grünen Reiswanze (Nezara viridula) infiziert sind, werden mit einer Wirkstoffzubereitung der gewünschten Konzentration gespritzt.
Nach 4 Tagen wird die Wirkung in % bestimmt. Dabei bedeutet 100 %, dass alle Reiswanzen abgetötet wurden; 0 % bedeutet, dass keine Reiswanzen abgetötet wurden.

Phaedon cochleariae = Phaedon cochleariae spray test; assay type: in vivo; settings: 500 g/ha; Chinese cabbage leaf discs (Brassica pekinensis), larvae; after 7 days
Description: Bei diesem Test zeigten z. B. die folgenden Verbindungen der Herstellungsbeispiele Wirkung von 100 % bei einer Aufwandmenge von 500 g/ha: 1. Phaedon cochleariae - Sprühtest
as §1
Chinakohlblattscheiben (Brassica pekinensis) werden mit einer Wirkstoffzubereitung der gewünschten Konzentration gespritzt und nach dem Abtrocknen mit Larven des Meerrettichblattkäfers (Phaedon cochleariae) besetzt.
Nach 7 Tagen wird die Wirkung in % bestimmt. Dabei bedeutet 100 %, dass alle Käferlarven abgetötet wurden; 0 % bedeutet, dass keine Käferlarven abgetötet wurden.

Ctenocephalides felis = Ctenocephalides felis oral test; assay type: in vivo; settings: 100 ppm in citrated cattle blood; adult cat fleas; after 2 days
Experimental: Ctenocephalides felis - Oraltest
Zwecks Herstellung einer zweckmäßigen Wirkstoffzubereitung vermischt man 10 mg Wirkstoff mit 0,5 ml Dimethylsulfoxid. Durch Verdünnen mit citriertem Rinderblut erhält man die gewünschte Konzentration.
Ca. 20 nüchterne adulte Katzenflöhe (Ctenocephalides felis) werden in eine Kammer eingesetzt, die oben und unten mit Gaze verschlossen ist. Auf die Kammer wird ein Metallzylinder gestellt, dessen Unterseite mit Parafilm verschlossen ist. Der Zylinder enthält die Blut-Wirkstoffzubereitung, die von den Flöhen durch die Parafilmmembran aufgenommen werden kann.
Nach 2 Tagen wird die Abtötung in % bestimmt. Dabei bedeutet 100 %, dass alle Flöhe abgetötet wurden; 0 % bedeutet, dass keiner der Flöhe abgetötet wurde.

[4] = reversed-phase (C18) HPLC column, HPLC-MS (ESI-positiv), acidic or neutral range not given, read-out: LogP-Wert
[5] = HPLC-MS (ESI-positiv), acidic or neutral range not given
[6] = HPLC-MS/UPLC-MS neutral (method [b], pH 7,8)
[7] = pH 7.8, HPLC-MS/UPLC-MS neutral (method [b], pH 7,8), read-out: LogP-Wert

- chromatographic logP [1, 4]: 2.17
Compound: N=c1ccccn1-c1ccc(C(F)(F)F)nc1 [IV-1, 6'-Trifluormethyl-[1(2H), 3'-bipyridin]-2-imin-hydrogeniodid]

Compound: FC(F)(F)c1ccc(-n2ccccc2=Nc2ncccn2)cn1 [Beispiel 4, 1-[(6-Trifluormethyl-3-pyridyl]-N-(pyrimid-2-yl))pyridin-2-imin]
- LogP-Wert [1, 5]: LogP-Wert = 1,38

- LogP-Wert [1, 6]: 2,39
- chromatographic logP [1, 7]: 2.37
Compound: N=C(N=c1ccccn1-c1ccc(C(F)(F)F)nc1)SCC(=O)C(F)(F)F [N-[1-[(6-trifluormethyl-3-pyridyl)]-2-pyridyliden]-imidothio-(3,3,3-trifluoro-2-oxopropyl)-ester]

- chromatographic logP ([1]; pH 7.8, LogP-Wert): 0.7
Compound: NC(=S)N=c1ccccn1-c1ccc(C(F)F)nc1 [VII-2, N-[1-[(6-Difluormethyl-3-pyridinyl)]-2(1H)-pyridinyliden]-thioharnstoff]

- chromatographic logP ([1]; pH 7.8, LogP-Wert): 1.28
Compound: CCOC(=O)NC(=S)N=c1ccccn1-c1ccc(C(F)F)nc1 [VI-2, Ethyl N-[1-[(6-difluormethyl-3-pyridyl)]-2-pyridylidene]carbamothioylcarbamat]

Compound: FC(F)c1ccc(-n2ccccc2=Nc2nc(C3(F)CC3)cs2)cn1 [Beispiel 2]
- Wirkung in % (Diabrotica balteata): 100%
- LogP-Wert [1, 6]: LogP-Wert = 3,02

Compound: NC(=S)N=c1ccccn1-c1ccc(C(F)(F)F)nc1 [VII-1, N-[1-[(6-Trifluormethyl-3-pyridinyl)]-2(1H)-pyridinyliden]-thioharnstoff]
- LogP-Wert [1, 5]: 1,12 and 1,14

- chromatographic logP ([1]; pH 7.8, LogP-Wert (neutral)): 2.65
Compound: N#CC1(c2csc(N=c3ccccn3-c3ccc(C(F)F)nc3)n2)CC1 [Beispiel 12]
- Wirkung in % (Diabrotica balteata): 100%

- chromatographic logP ([1]; pH 7.8, LogP-Wert (neutral)): 3.99
Compound: CC1(c2csc(N=c3ccccn3-c3ccc(C(F)(F)F)nc3)n2)CC1 [Beispiel 10]
- Wirkung in % (Diabrotica balteata): 100%

- chromatographic logP ([1]; pH 2.7, LogP-Wert (HCOOH)): 2.39
Compound: N#CC1(c2csc(N=c3ccccn3-c3ccc(C(F)(F)F)nc3)n2)CC1 [Beispiel 8]
- Wirkung in % (Diabrotica balteata): 100%
- Wirkung in % (Myzus persicae [2]): 100%

- LogP-Wert [1]: 1,23
- chromatographic logP ([1]; LogP-Wert): 1.18
Compound: FC(F)c1ccc(-n2ccccc2=S)cn1 [II-2, 6'-Difluormethyl-[1(2H), 3'-bipyridin]-2-thion]

- chromatographic logP ([1]; pH 2.7, LogP-Wert (HCOOH)): 1.13
Compound: CCc1csc(N=c2ccccn2-c2ccc(C(F)(F)F)nc2)n1 [Beispiel 5]
- Wirkung in % (Diabrotica balteata): 100%
- Wirkung in % (Myzus persicae [2]): 90%

- chromatographic logP ([1]; pH 2.7, LogP-Wert (HCOOH)): 2.04
Compound: FC(F)(F)c1ccc(-n2ccccc2=Nc2nc(C3(F)CC3)cs2)cn1 [Beispiel 9]
- Wirkung in % (Diabrotica balteata): 100%
- Wirkung in % (Myzus persicae [2]): 90%

- chromatographic logP ([1]; pH 2.7, LogP-Wert (HCOOH)): 1.34
Compound: FC(F)(F)c1ccc(-n2ccccc2=Nc2nc(C3CC3)cs2)cn1 [Beispiel 6]
- Wirkung in % (Diabrotica balteata): 100%
- Wirkung in % (Myzus persicae [2]): 90%

- chromatographic logP ([1]; LogP-Wert): 0.04
Compound: CSc1cccc[n+]1-c1ccc(C(F)F)nc1 [III-2]

Compound: FC(F)(F)c1ccc(-n2ccccc2=Nc2nc(C(F)(F)F)cs2)cn1 [Beispiel 3, 1-[(6-Trifluormethyl-3-pyridyl]-N-(4-trifluormethylthiazol-2-yl))pyridin-2-imin]
- Wirkung in % (Diabrotica balteata): 100%
- Wirkung in % (Myzus persicae [2]): 100%
- LogP-Wert [1, 5]: LogP-Wert = 3,60

- chromatographic logP [1, 4]: 0.57
Compound: CSc1cccc[n+]1-c1ccc(C(F)(F)F)nc1 [III-1]

Compound: FC(F)(F)c1ccc(-n2ccccc2=S)cn1 [II-1, 6'-Trifluormethyl-[1(2H), 3'-bipyridin]-2-thion]
- chromatographic logP [1, 7]: 1.67

- chromatographic logP ([1]; pH 2.7, LogP-Wert (HCOOH)): 1.47
Compound: CC(C)(C)c1csc(N=c2ccccn2-c2ccc(C(F)(F)F)nc2)n1 [Beispiel 11]
- Wirkung in % (Diabrotica balteata): 100%

Compound: Cc1csc(N=c2ccccn2-c2ccc(C(F)(F)F)nc2)n1 [Beispiel 1]
- Wirkung in % (Tetranychus urticae): 90%
- Wirkung in % (Diabrotica balteata): 100%
- Wirkung in % (Myzus persicae [2]): 90%
- Wirkung in % (Nilaparvata lugens): 100%
- Wirkung in % (Myzus persicae [3]): 100%
- Wirkung in % (Nezara viridula): 90%
- Wirkung in % (Phaedon cochleariae): 100%
- LogP-Wert [1, 5]: LogP-Wert = 1,08
- Abtötung in % (Wirkung) (Ctenocephalides felis): 80%

- chromatographic logP ([1]; pH 2.7, LogP-Wert (HCOOH)): 4.03
Compound: FC(F)(F)c1ccc(-n2ccccc2=Nc2nc(C(F)(F)C(F)(F)F)cs2)cn1 [Beispiel 7]
- Wirkung in % (Diabrotica balteata): 100%

- chromatographic logP ([1]; pH 7.8, LogP-Wert): 1.71
Compound: CCOC(=O)NC(=S)N=c1ccccn1-c1ccc(C(F)(F)F)nc1 [VI-1, Ethyl N-[1-[(6-trifluormethyl-3-pyridyl)]-2-pyridylidene]carbamothioylcarbamat]
